Test results taken from US20070270350A1, “Methods and Compositions for the Prevention and Treatment of Inflammatory Diseases or Conditions” (MUSC FOUNDATION FOR RESEARCH DEVELOPMENT, priority 2003, published 2007).

What was measured:
[1] = cited from earlier work
iNOS [2] = test: LPS/IFN-induced NO production and iNOS expression in C6 glioma cells; type: cell-based, rat; details: exogenous glycosphingolipid with D-PDMP
Method: C6 rat glioma cells obtained from ATCC were maintained in Dulbecco's modified Eagle's medium (DMEM) (GIBCO, CA) containing 10% fetal bovine serum (FBS) (GIBCO) and 10 ? g/ml gentamicin. All the cultured cells were maintained at 37° C. in 5% CO2/95% air. At 80% confluency, the cells were incubated with serum free DMEM medium for 24 h prior to the incubation with LPS/IFN ? and other chemicals. Assay for NO production. Cells were cultured in 12-well plastic tissue culture plates. After the appropriate treatment, production of NO was determined by an assay of the culture supernatant for nitrite (Green et al., 1982). Briefly, 100 μl of culture supernatant was allowed to react with 100 μl of Griess reagent. The optical density of the assay samples was measured spectrophotometrically at 570 nm. Nitrite concentrations were calculated from a standard curve derived from the reaction of NaNO2 in fresh media. Western Blot Analysis. […] The protein concentration of samples was determined with the detergent compatible protein assay reagent (Bio-Rad Laboratories, CA) using bovine serum albumin (BSA) as the standard. Sample was boiled for 3 min with 0.1 volumes of 10% O-mercaptoethanol and 0.5% bromophenol blue mix. Fifty μg of total cellular protein was resolved by electrophoresis in 8 or 12% polyacrylamide gels, electro-transferred to polyvinylidene difluoride (PVDF) filter and blocked with Tween 20 containing Tris-buffered saline [TBST; 10 mM Trizma base (pH 7.4), 1% Tween 20, and 150 mM NaCl] with 5% skim milk. After incubation with antiserum against iNOS (BD PharMingen, CA), or hRas (Upstate Biotechnology, CA), or phospho-specific MAPK (p42/44) (Signal Transduction), in PVDF buffer for 2 h at room temperature, the filters were washed 3 times with TBST buffer and then incubated with horseradish peroxidase conjugated anti-rabbit or mouse IgG for 1 h. The membranes were autoradiographed by using ECL-plus (Amersham Pharmacia Biotech) after washing with TBST buffer. RT-PCR amplification. […] PCR amplification was conducted in 25 ? l of reaction mixture with 1.0 ? l of cDNA, […] and under the manufacturer's Taq polymerase conditions (Takara, […] Shuzo Co. Ltd, Japan). The sequence of primers used for PCR amplification are as follows; iNOS, (Forward-[NT], Reverse-[NT]), GalT-2 (Forward-[NT], Reverse-[NT]), GAPDH (Forward-[NT], Reverse-[NT]).

NF-κB = NF-κB reporter, gel shift and IκB phosphorylation after LPS/IFN; type: cell-based, rat
Method: (§1) Western Blot Analysis. For iNOS protein, the cells were washed with cold Tris buffered saline (TBS; 20 mM Trizma base, and 137 mM NaCl, pH 7.5), lysed in 1×SDS sample loading buffer (62.5 mM Trizma base, 2% w/v SDS, 10% glycerol), following sonication and centrifugation at 1,5000×g for 5 min, the supernatant was used for the iNOS western immunoblot assay. The protein concentration of samples was determined with the detergent compatible protein assay reagent (Bio-Rad Laboratories, CA) using bovine serum albumin (BSA) as the standard. Sample was boiled for 3 min with 0.1 volumes of 10% O-mercaptoethanol and 0.5% bromophenol blue mix. Fifty μg of total cellular protein was resolved by electrophoresis in 8 or 12% polyacrylamide gels, electro-transferred to polyvinylidene difluoride (PVDF) filter and blocked with Tween 20 containing Tris-buffered saline [TBST; 10 mM Trizma base (pH 7.4), 1% Tween 20, and 150 mM NaCl] with 5% skim milk. After incubation with antiserum against iNOS (BD PharMingen, CA), or hRas (Upstate Biotechnology, CA), or phospho-specific MAPK (p42/44) (Signal Transduction), in PVDF buffer for 2 h at room temperature, the filters were washed 3 times with TBST buffer and then incubated with horseradish peroxidase conjugated anti-rabbit or mouse IgG for 1 h. The membranes were autoradiographed by using ECL-plus (Amersham Pharmacia Biotech) after washing with TBST buffer.
Nuclear Extraction and Electrophoretic mobility shift assay. Nuclear extracts from cells (1×10^7 cells) were prepared using previously published method (Dignam et al., 1983) with slight modification. Cells were harvested, washed twice with ice-cold TBS, and lysed in 400 μl of buffer A containing, 10 mM KCl, 2 mM MgCl2, 0.5 mM dithiothreitol, protease inhibitor cocktail (Sigma), and 0.1% Nonidet P40 in 10 mM HEPES, pH 7.9 for 10 min on ice. Following centrifugation at 5,000×g for 10 min, the pelleted nuclei were washed with buffer A without Nonidet P40, and re-suspended in 40 μl of buffer B containing 25% (v/v) glycerol, 0.42 M NaCl, 1.5 mM MgCl2, 0.2 mM EDTA, 0.5 mM dithiothreitol, and Complete™ protease inhibitor cocktail (Roche) in 20 mM HEPES, pH7.9 for 30 min on ice. The lysates were centrifuged at 15,000×g for 15 min and the supernatants containing the nuclear proteins were stored at −70° C. until use. Ten μg of nuclear proteins was used for the electrophoretic mobility shift assay for detection of AP-1, NFκB, and C/EBP DNA binding activities. DNA-protein binding reactions were carried out at room temperature for 20 min in 10 mM Trizma base (pH 7.9), 50 mM NaCl, 5 mM MgCl2, 1 mM EDTA, 1 mM dithiothreitol, 1 μg poly (dl-dC), 5% (v/v) glycerol, and approximately 0.3 pmol of NFκB (Santa Cruz Biotech) labeled with DIG-ddUTP using terminal deoxynucleotidyl transferase (Roche). Protein-DNA complexes were resolved from protein-free DNA in 5% polyacrylamide gels at room temperature in 50 mM Tris, pH 8.3, 0.38 M glycine, and 2 mM EDTA, and electroblotted onto positively charged nylon membranes. The chemiluminescence detection method for DIG-labeled probes is identical to the method described for the non-isotopic northern blot analysis in the preceding.
Transient Transfections and Reporter Gene Assay. 3×10^5 cells/well were cultured in 6-well plates for one day before the transfection. Transfection was performed with plasmid concentration constant (2.5 μg/transfection) and 8 μl of Fugene transfection reagent (Roche Molecular Biochemicals). One day after transfection, the cells were placed in serum free media for overnight. Following appropriate treatment, the cells were washed with phosphate buffered saline (PBS), scrapped, and then resuspended with 100 μl of lysis buffer (40 mM of Tricine pH 7.8, 50 mM of NaCl, 2 mM of EDTA, 1 mM of MgSO4, 5 mM of dithiothreitol, and 1% of Triton X-100). After incubation in room temperature for 15 min with occasional vortexing, the samples were centrifuged. […]

small GTPase Ras = test: Quantification of Ras activation (GST-Raf-1 Ras binding domain); type: cell-based, rat; details: exogenous LacCer with D-PDMP
Method: Quantification of Ras Activation. After stimulation, primary astrocytes in 6 well plates were washed with PBS and lysed in membrane lysis buffer (MLB; 0.5 ml of 25 mM HEPES, pH7.5, 150 mM NaCl, 1% Igepal CA-630, 0.25% sodium deoxycholate, 10% glycerol, 10 mM MgCl2, 1 mM EDTA, 25 mM NaF, 1 mM of sodium orthovanadate, and EDTA free Complete™ protease inhibitor cocktail). After centrifugation (5,000×g) at 4° C. for 5 min, supernatant was used for Ras activation assay. One hundred μg of supernatant was used for binding with agarose conjugated Ras-binding domain (RBD) of Raf-1 which was expressed in BL21 (Invitrogen) Escherichia coli strain transformed by pGEX-2T-GST-RBD in the presence of 0.1 mM of IPTG as described previously (Herrmann et al., 1995). The binding reaction was performed at 4° C. for 30 min in MLB. Following washing with MLB three times, Ras-RBD complex were denatured by adding of 2×SDS sample buffer. Ras protein was identified by western immunoblot analysis with Ras antibodies from Upstate Biotechnology.

ERK1/2 = ERK1/2 phosphorylation by immunoblot after LPS/IFN; type: cell-based, rat; details: exogenous LacCer with D-PDMP
Method: as §1

iNOS [3] = test: LPS/IFN-induced NO production and iNOS gene expression in primary astrocytes; type: cell-based, rat

effect on D-PDMP inhibition of NF-κB DNA binding activity (NF-κB; exogenous LacCer with D-PDMP) | effect on D-PDMP inhibition of κB-repeat luciferase activity (NF-κB; exogenous LacCer with D-PDMP) | effect on D-PDMP reduction of Ras activation (small GTPase Ras) | Molecule | solubility in water [1] | effect on D-PDMP inhibition of NO production (iNOS [2]) | effect on D-PDMP inhibition of iNOS mRNA and protein expression (iNOS [2]) | levels of phosphorylated IκB (NF-κB; LacCer added to D-PDMP) | effect on D-PDMP inhibition of ERK 1/2 phosphorylation (ERK1/2) | effect on D-PDMP mediated inhibition of iNOS gene expression (iNOS [3]; LacCer 5 and 10 μM with D-PDMP 50 μM before LPS/IFN) | effect on PD98059 inhibition of iNOS gene expression (iNOS [3]; exogenous LacCer with PD98059) | effect on D-PDMP mediated inhibition of NO production (iNOS [3]; glycosphingolipid 5 and 10 μM added with D-PDMP 50 μM, 0.5 hr before LPS/IFN, 24 hrs)
– | – | – | CCCCN1CC(O)C(O)C(O)C1CO [Miglustat, 1,5-(butylimino)-1,5-dideoxy-D-glucitol] | soluble | – | – | – | – | – | – | –
reversed | effectively bypassed | fully reversed | lactosylceramide [LacCer] | – | reversed | reversed | increased | reversed | blunted | no effect | blunted
